Activity calls are given as the source filed them. The rule behind the calls is not given here.

The term IC50 denotes the concentration needed to halve the response being measured. The inhibition is the drop in the measured response relative to a control, in per cent. What is called EC50 is the concentration giving half of the maximal effect.

Assay [1] deals with T1, Kir3.1/Kir3.4 (Homo sapiens, UniProt P48544+P48549).
T1 sequence (P48549 whole entry): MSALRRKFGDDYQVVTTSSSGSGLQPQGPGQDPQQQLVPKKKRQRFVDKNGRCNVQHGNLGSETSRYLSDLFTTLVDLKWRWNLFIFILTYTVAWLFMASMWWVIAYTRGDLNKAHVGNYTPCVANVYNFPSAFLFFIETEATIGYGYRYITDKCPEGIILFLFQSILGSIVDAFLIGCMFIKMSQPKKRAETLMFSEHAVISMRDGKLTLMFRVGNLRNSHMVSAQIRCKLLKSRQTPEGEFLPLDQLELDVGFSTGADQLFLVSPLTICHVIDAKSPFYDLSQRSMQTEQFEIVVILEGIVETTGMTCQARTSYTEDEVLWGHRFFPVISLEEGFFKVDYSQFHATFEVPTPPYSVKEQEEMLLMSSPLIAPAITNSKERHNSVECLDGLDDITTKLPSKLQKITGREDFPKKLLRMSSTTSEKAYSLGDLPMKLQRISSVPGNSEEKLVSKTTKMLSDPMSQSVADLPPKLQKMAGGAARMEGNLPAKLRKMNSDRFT
T1 sequence (P48544 whole entry): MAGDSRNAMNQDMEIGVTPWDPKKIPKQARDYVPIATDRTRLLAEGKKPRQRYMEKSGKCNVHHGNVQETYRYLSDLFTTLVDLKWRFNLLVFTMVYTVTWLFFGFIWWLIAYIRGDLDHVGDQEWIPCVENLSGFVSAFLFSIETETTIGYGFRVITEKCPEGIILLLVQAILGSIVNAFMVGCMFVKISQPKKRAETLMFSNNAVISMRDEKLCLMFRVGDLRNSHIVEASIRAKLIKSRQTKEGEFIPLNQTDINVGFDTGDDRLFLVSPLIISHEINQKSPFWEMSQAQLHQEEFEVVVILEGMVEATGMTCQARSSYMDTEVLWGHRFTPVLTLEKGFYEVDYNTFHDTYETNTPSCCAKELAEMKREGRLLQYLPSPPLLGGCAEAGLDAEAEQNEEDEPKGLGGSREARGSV
The assay is described as follows: Inhibition of GIRK1/4 (unknown origin). It counts as protein-complex assay.

Assay [2] concerns the target T2, Kir3.1/Kir3.2 (Homo sapiens) (UniProt P48549+P48051). The assay is described as follows: Inhibition of GIRK1/2 (unknown origin) relative to SCH3320. It counts as protein-complex assay. Also noted: concentration or dose not given beside the values. The conditions noted are these: concentration not given here.
The target in assay [3] is T3, Kir3.1/Kir3.2 (Homo sapiens, UniProt P48051+P48549).
T3 sequence (P48549 whole entry): T1 sequence (P48549 whole entry)
T3 sequence (P48051 whole entry): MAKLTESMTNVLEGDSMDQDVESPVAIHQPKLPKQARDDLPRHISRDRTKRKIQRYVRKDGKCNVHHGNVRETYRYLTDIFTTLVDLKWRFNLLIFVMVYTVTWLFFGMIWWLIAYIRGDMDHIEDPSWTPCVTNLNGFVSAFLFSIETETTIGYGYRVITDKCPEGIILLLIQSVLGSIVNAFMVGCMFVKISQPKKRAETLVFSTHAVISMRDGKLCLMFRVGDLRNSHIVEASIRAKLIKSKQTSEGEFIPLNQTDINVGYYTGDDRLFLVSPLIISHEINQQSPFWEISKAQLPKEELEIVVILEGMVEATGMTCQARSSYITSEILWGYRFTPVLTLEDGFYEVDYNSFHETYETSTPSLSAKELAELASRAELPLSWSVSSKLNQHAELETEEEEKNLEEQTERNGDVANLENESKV
The assay is described as follows: Inhibition of GIRK1/2 (unknown origin). It counts as protein-complex assay.

Assay [4] addresses T3, Kir3.1/Kir3.2. Nature of the assay: Activation of GIRK1/2 (unknown origin). It counts as protein-complex assay.
In assay [5] the target is T4, Kir3.1/Kir3.4 (Homo sapiens) (UniProt P48549+P48544). Nature of the assay: Activation of GIRK1/4 (unknown origin) relative to ML297. It counts as protein-complex assay.
Assay [6] deals with T2, Kir3.1/Kir3.2 (Homo sapiens). The assay is described as follows: Activation of GIRK1/2 (unknown origin) relative to ML297. It counts as protein-complex assay.
In assay [7] the target is T1, Kir3.1/Kir3.4. Nature of the assay: Activation of GIRK1/4 (unknown origin). It counts as protein-complex assay.
The target in assay [8] is T4, Kir3.1/Kir3.4 (Homo sapiens). Nature of the assay: Inhibition of GIRK1/4 (unknown origin) relative to SCH3320. It counts as protein-complex assay. Details: concentration or dose not given beside the values. The conditions noted are these: concentration not given here.
The target of assay [9] is T5, G protein-activated inward rectifier potassium channel 2 (Homo sapiens) (UniProt P48051).
T5 sequence (whole entry): T3 sequence (P48051 whole entry)
The assay is described as follows: Activation of GIRK2 (unknown origin).

Assay [10] deals with Kir3.2/Kir3.3 (Homo sapiens) (UniProt P48051+Q92806). Nature of the assay: Activation of GIRK2/3 (unknown origin). It counts as protein-complex assay.

As for `Cc1cccc(NC(=O)Nc2cc(C3CC3)nn2-c2ccccc2)c1`, the figures for the half-inhibitory concentration (IC50) at Kir3.1/Kir3.4 [1] and at Kir3.1/Kir3.2 [3] were over 30000 nM and 850 nM, respectively. Further, in assay [2], the inhibition is 80%.
For `Cc1ccc(NC(=O)Nc2cc(C3CC3)nn2Cc2ccccc2)cc1`, the figures for the EC50 at Kir3.1/Kir3.2 [4] and on Kir3.1/Kir3.4 [7] were 570 nM and 920 nM, respectively. The Efficacy in assay [5] was determined as 46%; in assay [6], 35%.
`O=C(Nc1cccc(Cl)c1)Nc1cc(C2CCC2)nn1-c1ccccc1`: the inhibition in assay [8] turned out to be 89%; in assay [2], 64%. Further, the figures for the IC50 on Kir3.1/Kir3.4 [1] and at Kir3.1/Kir3.2 [3] were 480 nM and 1400 nM, respectively.
With `Cc1cc(NC(=O)Nc2ccc(F)c(F)c2)n(-c2ccccn2)n1`, the outcome in assay [9] and in assay [10] was inactive. The figures for the concentration for a half-maximal effect (EC50) at Kir3.1/Kir3.2 [4] and at Kir3.1/Kir3.4 [7] were over 10000 nM and over 30000 nM, respectively. In assay [6], this molecule returned an Efficacy of 78%.
As for `O=C(Nc1cccc(F)c1)Nc1cc(C2CC2)nn1Cc1ccccc1`, the values for the EC50 at Kir3.1/Kir3.2 [4] and on Kir3.1/Kir3.4 [7] were 530 nM and 780 nM, respectively. Besides, the Efficacy came out at 85% in assay [5] and 46% in assay [6].
Turning to `Cc1ccc(NC(=O)Nc2cc(C(C)C)nn2-c2ccccc2)cc1`, the inhibition came out at 62% in assay [8] and 100% in assay [2]. For the same molecule, the half-maximal inhibitory concentration (IC50) against Kir3.1/Kir3.4 [1] was 1800 nM; on Kir3.1/Kir3.2 [3], 3900 nM.
For the molecule `CC(C)c1cc(NC(=O)Nc2cccc(C(F)(F)F)c2)n(Cc2ccccc2)n1`, the EC50 amounted to 1700 nM on Kir3.1/Kir3.2 [4] and 3500 nM on Kir3.1/Kir3.4 [7]. The Efficacy came to 10% in assay [5] and 38% in assay [6].
`CC(C)c1cc(NC(=O)Nc2cccc(F)c2)n(-c2ccccc2)n1`: the inhibition worked out at 70% in assay [8] and 77% in [2]. The IC50 at Kir3.1/Kir3.4 [1] came to 780 nM; against Kir3.1/Kir3.2 [3] it was 2100 nM.
For the molecule `O=C(Nc1ccc(F)c(F)c1)Nc1cc(C2CCC2)nn1-c1ccccc1`, the outcome in assay [9] and in assay [10] was inactive.
Regarding `Cc1cc(NC(=O)Nc2ccc(F)c(F)c2)n(-c2ccncc2)n1`, the result in [9] and in assay [10] was inactive. Further, the EC50 at Kir3.1/Kir3.2 [4] is over 10000 nM; on Kir3.1/Kir3.4 [7], over 30000 nM. For the same molecule, in [6], the Efficacy worked out at 88%.
On to `O=C(Nc1ccc(F)c(F)c1)Nc1cc(C2CC2)nn1-c1ccccc1`, for which the result in assay [9] and in [10] was inactive. In addition, on Kir3.1/Kir3.2 [4], the EC50 amounted to 410 nM. This molecule came in with an Efficacy in [6] of 32%.
For `O=C(Nc1ccc(F)c(F)c1)Nc1cc(CC2CC2)nn1-c1ccccc1`, the outcome in [9] and in [10] was inactive. The inhibition in assay [8] came out at 67%; in assay [2], 95%. In addition, the IC50 at Kir3.1/Kir3.4 [1] is 560 nM; at Kir3.1/Kir3.2 [3], 650 nM.
Take `O=C(Nc1cccc(F)c1)Nc1cc(CC2CC2)nn1-c1ccccc1`: the inhibition in assay [8] is 72%; in assay [2], 75%. Besides, the IC50 against Kir3.1/Kir3.4 [1] worked out at 180 nM; against Kir3.1/Kir3.2 [3] it was 450 nM.
For `O=C(Nc1cccc(Cl)c1)Nc1cc(CC2CC2)nn1-c1ccccc1` the same measures were 72%, 76%, 340 nM and 630 nM.
The corresponding values for `O=C(Nc1ccc(F)c(Cl)c1)Nc1cc(CC2CC2)nn1-c1ccccc1` are 70%, 87%, 310 nM and 810 nM.
Regarding `O=C(Nc1cccc(F)c1)Nc1cc(C2CC2)nn1-c1ccccc1`, the IC50 at Kir3.1/Kir3.4 [1] was over 30000 nM; against Kir3.1/Kir3.2 [3], 1200 nM. This molecule also had an inhibition in assay [2] of 60%.
Take `O=C(Nc1cccc(Br)c1)Nc1cc(C2CCC2)nn1-c1ccccc1`: the results for the inhibition in assay [8] and in assay [2] were 69% and 51%, respectively. The IC50 came to 720 nM against Kir3.1/Kir3.4 [1] and 1900 nM on Kir3.1/Kir3.2 [3].

The values above are taken from ChEMBL document CHEMBL2406941, “Discovery of 'molecular switches' within a GIRK activator scaffold that afford selective GIRK inhibitors” (Bioorg Med Chem Lett, 2013).
